Laboratory results taken from the Kinase Knowledgebase extract (Sharma et al. 2016).

Assays:
PIK3CA (human) = PIK3CA (human) (UniProt P42336); experiment: Inhibition of PIK3CA Kinase Activity
PIK3CB (Human) = PIK3CB (Human) (UniProt P42338); experiment: Inhibition of PIK3CB Kinase Activity
PIK3CG (human) = PIK3CG (human) (UniProt P48736); experiment: Inhibition of PIK3CG Kinase Activity
PIK3CD (Human) = PIK3CD (Human) (UniProt O00329); experiment: Inhibition of PIK3CD Kinase Activity
Chain of PIK3CD (Human) (O00329 whole entry, looked up): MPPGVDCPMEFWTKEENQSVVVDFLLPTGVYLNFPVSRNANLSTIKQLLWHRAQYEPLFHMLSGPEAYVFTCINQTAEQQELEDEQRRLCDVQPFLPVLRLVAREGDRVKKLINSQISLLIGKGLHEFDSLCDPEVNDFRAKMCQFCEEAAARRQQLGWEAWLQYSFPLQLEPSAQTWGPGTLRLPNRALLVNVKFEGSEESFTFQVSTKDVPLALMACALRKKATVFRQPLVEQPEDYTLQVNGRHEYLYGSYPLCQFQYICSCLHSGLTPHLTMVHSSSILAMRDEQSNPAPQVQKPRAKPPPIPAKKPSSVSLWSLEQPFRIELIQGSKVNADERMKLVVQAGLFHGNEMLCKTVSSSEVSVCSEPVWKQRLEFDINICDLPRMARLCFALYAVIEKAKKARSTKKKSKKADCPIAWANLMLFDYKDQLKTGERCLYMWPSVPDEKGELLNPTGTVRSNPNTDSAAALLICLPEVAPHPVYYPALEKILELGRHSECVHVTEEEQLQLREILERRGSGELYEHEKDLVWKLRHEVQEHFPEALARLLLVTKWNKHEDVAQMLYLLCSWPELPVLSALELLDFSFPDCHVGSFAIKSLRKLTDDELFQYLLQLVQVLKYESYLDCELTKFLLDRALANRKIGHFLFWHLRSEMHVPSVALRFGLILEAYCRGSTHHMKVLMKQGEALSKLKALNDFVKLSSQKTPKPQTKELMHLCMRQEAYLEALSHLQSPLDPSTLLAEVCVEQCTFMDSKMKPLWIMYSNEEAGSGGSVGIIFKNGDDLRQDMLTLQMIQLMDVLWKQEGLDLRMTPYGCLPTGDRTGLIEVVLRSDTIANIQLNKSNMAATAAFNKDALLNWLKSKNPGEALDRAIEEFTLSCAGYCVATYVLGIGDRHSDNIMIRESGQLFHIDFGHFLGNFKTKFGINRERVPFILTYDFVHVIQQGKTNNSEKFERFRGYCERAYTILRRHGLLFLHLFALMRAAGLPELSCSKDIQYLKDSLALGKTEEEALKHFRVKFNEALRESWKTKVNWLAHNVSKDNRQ

Chain of PIK3CB (Human) (P42338 whole entry, looked up): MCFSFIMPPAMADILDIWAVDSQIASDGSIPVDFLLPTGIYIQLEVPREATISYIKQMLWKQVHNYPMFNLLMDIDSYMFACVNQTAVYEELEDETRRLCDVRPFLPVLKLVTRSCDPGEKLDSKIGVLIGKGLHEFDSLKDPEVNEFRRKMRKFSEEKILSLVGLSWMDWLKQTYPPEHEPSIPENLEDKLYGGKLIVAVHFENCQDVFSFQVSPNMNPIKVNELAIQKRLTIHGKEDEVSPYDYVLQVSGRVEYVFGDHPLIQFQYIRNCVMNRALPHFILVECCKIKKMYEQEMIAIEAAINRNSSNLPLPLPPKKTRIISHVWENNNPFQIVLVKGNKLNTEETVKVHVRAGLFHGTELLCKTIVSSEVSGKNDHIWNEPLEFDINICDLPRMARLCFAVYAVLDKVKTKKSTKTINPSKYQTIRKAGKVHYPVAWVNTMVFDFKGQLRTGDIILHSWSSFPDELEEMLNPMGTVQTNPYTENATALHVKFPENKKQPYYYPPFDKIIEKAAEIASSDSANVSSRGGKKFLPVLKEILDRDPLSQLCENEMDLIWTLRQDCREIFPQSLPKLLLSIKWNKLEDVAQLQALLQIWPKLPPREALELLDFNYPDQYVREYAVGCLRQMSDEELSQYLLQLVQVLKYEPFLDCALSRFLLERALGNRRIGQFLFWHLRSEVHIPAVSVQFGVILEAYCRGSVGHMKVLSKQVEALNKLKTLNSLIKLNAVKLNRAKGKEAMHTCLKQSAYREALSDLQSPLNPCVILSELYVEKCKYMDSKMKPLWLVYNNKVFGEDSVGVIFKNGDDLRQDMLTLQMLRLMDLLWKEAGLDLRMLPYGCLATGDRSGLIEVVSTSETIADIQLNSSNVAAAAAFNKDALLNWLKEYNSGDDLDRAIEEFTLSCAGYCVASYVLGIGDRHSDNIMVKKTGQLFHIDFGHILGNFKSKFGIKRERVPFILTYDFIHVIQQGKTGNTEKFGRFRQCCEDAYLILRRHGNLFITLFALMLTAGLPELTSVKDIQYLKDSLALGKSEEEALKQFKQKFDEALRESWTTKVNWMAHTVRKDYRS
Chain of PIK3CA (human) (P42336 whole entry, looked up): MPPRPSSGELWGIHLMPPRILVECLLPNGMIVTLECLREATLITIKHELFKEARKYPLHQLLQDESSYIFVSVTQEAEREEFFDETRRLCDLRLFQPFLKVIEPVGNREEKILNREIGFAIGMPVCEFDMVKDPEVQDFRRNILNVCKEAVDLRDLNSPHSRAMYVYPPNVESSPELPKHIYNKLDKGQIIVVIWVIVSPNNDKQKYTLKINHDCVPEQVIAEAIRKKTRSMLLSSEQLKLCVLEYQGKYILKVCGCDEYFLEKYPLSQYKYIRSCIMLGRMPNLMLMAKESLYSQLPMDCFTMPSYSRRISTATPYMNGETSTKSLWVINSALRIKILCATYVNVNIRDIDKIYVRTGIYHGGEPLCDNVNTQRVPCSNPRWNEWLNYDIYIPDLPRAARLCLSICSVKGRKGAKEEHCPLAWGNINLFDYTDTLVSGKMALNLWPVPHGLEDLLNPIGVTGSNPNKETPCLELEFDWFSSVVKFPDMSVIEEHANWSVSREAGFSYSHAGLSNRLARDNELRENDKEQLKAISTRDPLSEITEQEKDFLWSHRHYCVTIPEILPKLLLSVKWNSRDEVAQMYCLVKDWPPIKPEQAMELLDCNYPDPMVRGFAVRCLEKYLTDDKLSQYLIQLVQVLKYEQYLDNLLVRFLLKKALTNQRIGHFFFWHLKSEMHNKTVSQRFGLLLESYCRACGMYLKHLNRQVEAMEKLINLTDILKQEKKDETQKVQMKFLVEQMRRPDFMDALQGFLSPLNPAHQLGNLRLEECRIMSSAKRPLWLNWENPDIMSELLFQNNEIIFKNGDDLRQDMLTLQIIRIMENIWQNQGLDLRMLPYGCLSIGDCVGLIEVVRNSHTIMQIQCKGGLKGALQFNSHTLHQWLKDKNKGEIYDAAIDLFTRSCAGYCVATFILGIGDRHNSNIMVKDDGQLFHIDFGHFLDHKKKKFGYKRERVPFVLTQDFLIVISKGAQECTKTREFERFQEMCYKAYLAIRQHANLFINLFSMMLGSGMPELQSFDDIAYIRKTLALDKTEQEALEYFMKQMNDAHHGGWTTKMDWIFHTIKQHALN
Chain of PIK3CG (human) (P48736 whole entry, looked up): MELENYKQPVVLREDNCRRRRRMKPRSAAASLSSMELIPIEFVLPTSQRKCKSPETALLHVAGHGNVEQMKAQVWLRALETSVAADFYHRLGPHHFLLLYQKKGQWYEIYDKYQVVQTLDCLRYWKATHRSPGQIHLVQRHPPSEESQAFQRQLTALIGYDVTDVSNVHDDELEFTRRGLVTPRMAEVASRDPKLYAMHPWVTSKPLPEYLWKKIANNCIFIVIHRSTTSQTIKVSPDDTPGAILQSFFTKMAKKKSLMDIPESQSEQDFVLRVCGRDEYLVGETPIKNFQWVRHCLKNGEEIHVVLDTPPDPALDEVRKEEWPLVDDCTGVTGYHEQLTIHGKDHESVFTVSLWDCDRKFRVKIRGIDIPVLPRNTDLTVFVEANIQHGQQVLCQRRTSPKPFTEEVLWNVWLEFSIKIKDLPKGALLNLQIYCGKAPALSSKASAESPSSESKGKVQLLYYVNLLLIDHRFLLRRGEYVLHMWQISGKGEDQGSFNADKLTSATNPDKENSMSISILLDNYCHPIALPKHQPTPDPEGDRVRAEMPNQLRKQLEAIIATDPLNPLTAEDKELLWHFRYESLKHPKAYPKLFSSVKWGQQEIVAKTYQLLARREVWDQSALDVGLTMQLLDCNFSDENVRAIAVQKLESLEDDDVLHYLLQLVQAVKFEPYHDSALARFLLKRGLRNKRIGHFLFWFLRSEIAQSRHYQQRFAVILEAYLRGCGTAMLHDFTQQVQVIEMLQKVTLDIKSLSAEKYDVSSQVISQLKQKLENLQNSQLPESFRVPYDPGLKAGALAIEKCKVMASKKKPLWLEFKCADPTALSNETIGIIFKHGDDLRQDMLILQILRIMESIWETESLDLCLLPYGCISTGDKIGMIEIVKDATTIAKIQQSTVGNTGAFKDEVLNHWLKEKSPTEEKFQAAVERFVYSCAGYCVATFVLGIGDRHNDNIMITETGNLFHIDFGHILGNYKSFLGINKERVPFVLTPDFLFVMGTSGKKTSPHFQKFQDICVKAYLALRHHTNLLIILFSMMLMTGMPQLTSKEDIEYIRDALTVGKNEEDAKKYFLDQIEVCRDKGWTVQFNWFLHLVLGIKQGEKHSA

Row | SMILES | IC50 (PIK3CA (human)) | IC50 (PIK3CB (Human)) | IC50 (PIK3CG (human)) | IC50 (PIK3CD (Human))
1 | Cc1ccc(-c2cccc3cc([C@H](C)Nc4ncnc(N)n4)n(-c4ccccc4)c(=O)c23)cn1 | > 10000 nM | > 10000 nM |  | 100 to 1000 nM
2 | C[C@H](Nc1ncnc2[nH]cnc12)c1cc2cccc(-n3cccn3)c2c(=O)n1-c1ccccc1 | > 10000 nM | > 10000 nM |  | 100 to 1000 nM
3 | C[C@H](Nc1ncnc2[nH]cnc12)c1cc2cccc(NC3CCOCC3)c2c(=O)n1-c1ccccc1 | > 10000 nM | > 10000 nM |  | 100 to 1000 nM
4 | Cc1cnn(-c2cccc3cc([C@H](C)Nc4ncnc5[nH]cnc45)n(-c4ccccc4)c(=O)c23)c1 | > 10000 nM | > 10000 nM |  | 100 to 1000 nM
5 | COc1ncc(-c2cccc3cc([C@H](C)Nc4ncnc5[nH]cnc45)n(-c4ccccc4)c(=O)c23)cn1 |  | > 10000 nM |  | < 100 nM
6 | C[C@H](Nc1ncnn2cncc12)c1cc2cccc(-c3cnn(C)c3)c2c(=O)n1-c1ccccc1 | > 10000 nM | > 10000 nM | > 10000 nM | 
7 | C[C@H](Nc1ncnc2[nH]cnc12)c1cc2cccc(N(C)C)c2c(=O)n1-c1ccccc1 | > 10000 nM | > 10000 nM |  | 
8 | C[C@H](Nc1ncnc2[nH]cnc12)c1cc2cccc(-c3cccnc3)c2c(=O)n1-c1ccccc1 |  |  | < 100 nM | < 100 nM
9 | C[C@H](Nc1ncnc2[nH]cnc12)c1cc2cccc(-c3cnn(C)c3)c2c(=O)n1-c1cccc(F)c1 |  | > 10000 nM | < 100 nM | < 100 nM
10 | C[C@H](Nc1ncnc(N)c1C#N)c1cc2cccc(-c3cnn(C)c3)c2c(=O)n1-c1ccccc1 |  | > 10000 nM | < 100 nM | < 100 nM
11 | C[C@H](Nc1ncnc2[nH]cnc12)c1cc2cccc(-c3cnn(C)c3)c2c(=O)[nH]1 | > 10000 nM | > 10000 nM | > 10000 nM | 
12 | C[C@H](Nc1nc(N)nc2[nH]cnc12)c1cc2cccc(-c3cccnc3)c2c(=O)n1-c1ccccc1 | 100 to 1000 nM |  | < 100 nM | < 100 nM
13 | C[C@H](Nc1ncnc2[nH]cnc12)c1cc2cccc(N3CCCC3)c2c(=O)n1-c1ccccc1 | > 10000 nM | > 10000 nM |  | 
14 | C[C@H](Nc1ncnc2[nH]cnc12)c1cc2cccc(N3CCN(C)CC3)c2c(=O)n1-c1ccccc1 | > 10000 nM | > 10000 nM | > 10000 nM | 100 to 1000 nM
15 | C[C@H](Nc1ncnc2[nH]cnc12)c1cc2cccc(-c3cn[nH]c3)c2c(=O)n1-c1ccccc1 |  | > 10000 nM | 100 to 1000 nM | < 100 nM
16 | C=Cc1cccc2cc([C@H](C)Nc3ncnc4[nH]cnc34)n(-c3ccccc3)c(=O)c12 |  |  | < 100 nM | < 100 nM
17 | C[C@H](Nc1ncnc2[nH]cc(F)c12)c1cc2cccc(-c3cnn(C)c3)c2c(=O)n1C1CC1 |  |  | 100 to 1000 nM | < 100 nM
18 | C[C@H](Nc1ncnc2[nH]cnc12)c1cc2cccc(C#N)c2c(=O)n1-c1ccccc1 | > 10000 nM |  | < 100 nM | < 100 nM
19 | Cc1cn(-c2cccc3cc([C@H](C)Nc4ncnc5[nH]cnc45)n(-c4ccccc4)c(=O)c23)cn1 | > 10000 nM | > 10000 nM |  | < 100 nM
20 | C[C@H](Nc1ncnc2[nH]cnc12)c1cc2cccc(N3CCOCC3)c2c(=O)n1-c1ccccc1 | > 10000 nM | > 10000 nM | 100 to 1000 nM | 100 to 1000 nM
21 | C[C@H](Nc1nc(N)ncc1I)c1cc2cccc(-c3cnn(C)c3)c2c(=O)n1-c1ccccc1 | > 10000 nM | > 10000 nM | < 100 nM | < 100 nM
22 | C[C@H](Nc1ncnc2[nH]cnc12)c1cc2cccc(-c3cnn(C)c3)c2c(=O)n1C1CC1 |  |  | 100 to 1000 nM | < 100 nM
23 | C[C@H](Nc1ncnc(N)n1)c1cc2cccc(-c3cnn(C)c3)c2c(=O)n1-c1ccccc1 | > 10000 nM | > 10000 nM |  | < 100 nM
24 | Cc1cc(-c2cccc3cc([C@H](C)Nc4ncnc5[nH]cnc45)n(-c4ccccc4)c(=O)c23)ccn1 | 100 to 1000 nM |  | < 100 nM | < 100 nM
25 | C[C@H](Nc1nc(N)ncc1C(F)(F)F)c1cc2cccc(-c3cnn(C)c3)c2c(=O)n1-c1ccccc1 | > 10000 nM | > 10000 nM | < 100 nM | < 100 nM

The next lines start with the values.

Row | IC50 (PIK3CA (human)) | IC50 (PIK3CB (Human)) | IC50 (PIK3CG (human)) | IC50 (PIK3CD (Human)) | SMILES
26 | > 10000 nM | > 10000 nM | 100 to 1000 nM | < 100 nM | C[C@H](Nc1nc(N)ncc1Cl)c1cc2cccc(-c3cnn(C)c3)c2c(=O)n1-c1ccccc1
27 | 100 to 1000 nM |  | < 100 nM | < 100 nM | C[C@H](Nc1ncnc2[nH]cc(C#N)c12)c1cc2cccc(-c3cnn(C)c3)c2c(=O)n1-c1ccccc1
28 | 100 to 1000 nM | 100 to 1000 nM | < 100 nM | < 100 nM | C[C@H](Nc1ncnc2[nH]cnc12)c1cc2cccc(-c3cn[nH]c3)c2c(=O)n1C1CC1
29 | > 10000 nM | > 10000 nM | < 100 nM | < 100 nM | C[C@H](Nc1ncnc2[nH]cnc12)c1cc2cccc(-c3cnn(C)c3)c2c(=O)n1-c1ccccc1
30 |  | > 10000 nM | < 100 nM | < 100 nM | Cc1ccc(-c2cccc3cc([C@H](C)Nc4ncnc5[nH]cnc45)n(-c4ccccc4)c(=O)c23)cn1
31 |  | 100 to 1000 nM | < 100 nM | < 100 nM | C[C@H](Nc1ncnc2[nH]cnc12)c1cc2cccc(-c3cccnc3)c2c(=O)n1C1CC1
32 |  |  | < 100 nM | < 100 nM | C[C@H](Nc1ncnc2[nH]cnc12)c1cc2cccc(-c3cccc(F)c3)c2c(=O)n1-c1ccccc1
33 | 100 to 1000 nM |  | < 100 nM | < 100 nM | Cc1ccc(-c2cccc3cc([C@H](C)Nc4nc(N)nc5[nH]cnc45)n(-c4ccccc4)c(=O)c23)cn1
34 |  | < 100 nM | < 100 nM | < 100 nM | C[C@H](Nc1nc(N)ncc1C#N)c1cc2cccc(-c3cnn(C)c3)c2c(=O)n1C1CC1
35 |  |  | < 100 nM | < 100 nM | C[C@H](Nc1ncnc2[nH]cc(C(N)=O)c12)c1cc2cccc(-c3cnn(C)c3)c2c(=O)n1-c1ccccc1
36 |  |  | < 100 nM | < 100 nM | C[C@H](Nc1ncnc2[nH]cnc12)c1cc2cccc(-c3ccncc3)c2c(=O)n1-c1ccccc1
37 |  |  | < 100 nM | < 100 nM | CCc1cccc2cc([C@H](C)Nc3ncnc4[nH]cnc34)n(-c3ccccc3)c(=O)c12
38 |  | > 10000 nM | 100 to 1000 nM | < 100 nM | C[C@H](Nc1ncnn2ccnc12)c1cc2cccc(-c3cnn(C)c3)c2c(=O)n1-c1ccccc1
39 | > 10000 nM | > 10000 nM | < 100 nM | < 100 nM | C[C@H](Nc1ncnc2[nH]cnc12)c1cc2cccc(-c3cc[nH]n3)c2c(=O)n1-c1ccccc1
40 | > 10000 nM | > 10000 nM | < 100 nM | < 100 nM | C[C@H](Nc1nc(N)ncc1C(F)(F)F)c1cc2cccc(-c3cnn(C)c3)c2c(=O)n1C1CC1
41 | > 10000 nM | > 10000 nM | 100 to 1000 nM | < 100 nM | C[C@H](Nc1ncnc2[nH]cnc12)c1cc2cccc(-c3cccnc3)c2c(=O)[nH]1
42 | > 10000 nM | > 10000 nM | < 100 nM | < 100 nM | C[C@H](Nc1nc(N)ncc1C#N)c1cc2cccc(-c3cnn(C)c3)c2c(=O)n1-c1ccccc1
43 | 100 to 1000 nM |  | < 100 nM | < 100 nM | C[C@H](Nc1nc(N)nc2[nH]cnc12)c1cc2cccc(-c3cnn(C)c3)c2c(=O)n1-c1ccccc1
